Data taken from patent US8795659B2 (priority 2004, dated 2014).

Tested on: Lewis Lung Carcinoma
Details: mouse, in vivo, ip

Compound	% ILS (excluding survivors) [%]	Highest non-toxic dosage	T-C (tumor growth delay to 750 mg) [days]	tumor free survivors
O=P1(NCCCl)OCCCN1CCCl (centres unmarked) [Ifosfamide]	55	300	18	7/10
O=P1(N(CCCl)CCCl)NCCCO1 (centres unmarked) [Cyclophosphamide, cyclophosphamide]	68	200	27	5/10
